From US9550752B2, “Triazolinthione derivatives” (priority 2013, dated 2017) come the findings set out here.

The structures appear in SMILES notation. Marks after values point to notes of the source that are not given here. A value given as a limit tells only on which side of the number the result lay.

For data set [1], the system named is Pyrenophora teres. The experiment in a line: In vivo preventive test on Pyrenophora teres (net blotch on barley). The settings on record: 500 ppm of active ingredient; barley plants, preventive spray; evaluated 14 days after inoculation. On the procedure:
The young plants of barley are treated by spraying the active ingredient prepared as described above. Control plants are treated only with an aqueous solution of acetone/Dimethyl sulfoxide/tween®. After 24 hours, the plants are contaminated by spraying the leaves with an aqueous suspension of Pyrenophora teres spores.

The conditions of data set [2]: pH 2.7.
The test system of data set [3] is Botrytis cinerea. The experiment in a line: In vivo preventive test on Botrytis cinerea (grey mould). As to conditions: 100 ppm of active ingredient; gherkin plants, preventive spray; evaluated 4 to 5 days after inoculation. On the procedure:
The young plants of gherkin are treated by spraying the active ingredient prepared as described above. Control plants are treated only with an aqueous solution of acetone/Dimethyl sulfoxide/tween®. After 24 hours, the plants are contaminated by spraying the leaves with an aqueous suspension of Botrytis cinerea spores.

For the compound `CCC(C)(C)C(O)(Cc1ccncc1F)Cn1ncnc1S` (stereo not shown) [Example I-17], the biological efficacy in data set [1] was ≥ 90%. In addition, the LogP in data set [2] was 2.14^[a].
For the compound `OC(Cc1ccncc1Cl)(Cn1ncnc1S)C1(F)CC1` (stereo not shown) [Example I-13], the biological efficacy in data set [3] is given as ≥ 90%. Moreover, the LogP in data set [2] is 1.63^[a].
